Reference: patent US9381273B2, “Scaffolds with oxygen carriers, and their use in tissue regeneration” (Yissum Research Development Company of the Hebrew …, priority 2008, dated 2016)

Tests used:
C3H/HeN mice [1] = test: Radius bone defect regeneration, micro CT; settings: 2.5-mm radius defect, fibrin gel with MSCs, 14 days
Method: Briefly, C3H/HeN female mice aged 6-8 weeks (n=16) were anesthetized using ketamine-xylazine mixture injected intraperitoneal. The skin of the forelimb was swabbed with isopropyl alcohol (70%). The skin was cut and 2.5 mm-long defect was created in the radius bone. Approximately one million Tet-off BMP2 cells were suspended in fibrin gel (Baxter) and supplemented with 5 or 10% PFTBA (Sigma, n=5 for each group) or not supplemented at all (n=6). The cell-gel mixture was incubated for 5 minutes in room temperature (RT) under sterile conditions to allow the fibrin to gel, and was subsequently implanted into the defect site. The mice were sacrificed 2 weeks post-transplantation; limbs were harvested and scanned using the μCT in order to analyze bone formation.
A quantitative morphometric analysis of the bone formation in nonunion fractures, was undertaken using μCT as previously described (Tai, K., et al., 2008, Tissue Eng Part A 14, 1709-1720). Mouse forelimbs, including ulna and radius, as well as native muscle and soft tissue were scanned using a Desktop Cone-Beam Micro-CT Scanner (μCT 40; Scanco Medical AG, Bruttisellen, Switzerland) at a spatial nominal resolution of 20 mm. A constrained 3D Gaussian filter (sigma=0.8 and support=1) was used to partly suppress the noise in the volumes. The bone tissue was segmented from marrow and soft tissue using a global thresholding procedure. In the nonunion fracture site, the evaluation was done only in the central 2-mm of the bone defect, including only newly formed bone. Morphometric indices were determined as described earlier.

osteocalcin = test: Host osteocalcin gene expression in vivo, BLI in OC/Luc transgenic mice; set-up: species or system OC/Luc Tg mice; settings: fibrin gel with MSCs, 5 or 10% PFTBA pooled
Excerpt: Osteocalcin gene expression in vivo—In order to analyze the effect of PFTBA supplementation on osteocalcin gene expression in vivo, transgenic mice (Oc-Luc), which harbor the Luc gene under the control of the osteogenic tissue-specific promoter, osteocalcin (Bar, Zilberman et al. 2003) were utilized. In order to monitor Luc activity in real-time a quantitative, the BLI system with the non-invasive cooled charge-coupled device (CCCD) camera was used. In this model, osteogenic activity in the transgenic mice was reported by Luc expression, which is activated by the osteocalcin promoter. This activity is detected by the CCCD as an emitted light following an injection of luciferin. The result values were normalized to constitutive tail expression of Luc, as previously described (Bar, Zilberman et al. 2003), so that the different mice that express the transgene with different intensities could be compared. In this experiment, 1×10^6 tet-off BMP2 cells in fibrin gel supplemented with 5 or 10% PFTBA, or not supplemented at all were implanted.

C3H/HeN mice [2] = test: Ectopic bone formation by subcutaneous hydrogel implants with Tet-off BMP2 MSCs, micro CT and histology; settings: for bone volume of ectopic bone: SC implant, mean±standard error
Method: Ectopic implantations—At near confluency, Tet-off BMP2 cells or Tet-off BMP2 Luc/GFP cells were trypsinized and counted using the trypan blue exclusion method. Aliquots of cells (one million Tet-off BMP2 cells or 3 million Tet-off BMP2 Luc/GFP cells) were resuspended in 50111 of fibrin or silk gel. Five, 10 or 20% [weight per volume (w/v)] Heptacosafluorotributylamine (Perfluorotributylamine, PFTBA, Sigma catalogue number H5262; Sigma-Aldrich, St Louis, Mo., USA) was added to the hydrogel just before implantations.
The cell-hydrogel mixture was injected subcutaneously in 8 weeks old female C3H/HeN mice, as follows: mice were anesthetized with a mixture of xylazine and ketamine (0.15% xylazine and 0.85% ketamine), which was injected intraperitoneally (i.p.) at 1 μl/g body weight. The area of injection was shaved and cleaned using 70% ethanol. Using 27G tuberculin syringe the cells-gel mixture was injected subcutaneously. Each mouse received 3 or 4 implants, consistent of 50 μl hydrogel in which cells and PFTBA were mixed. Mice where sacrificed after two weeks, and implants were harvested and fixed in 4% formalin.
Analysis of bone formation using micro CT imaging—In order to quantify bone formation in the ectopic implants, a high-resolution μCT system, Desktop μCT 40 (Scanco Medical A G, Bassersdorf, Switzerland) was used. Micro-tomographic slices were acquired at 1000 projections and reconstructed at a spatial nominal resolution of 12 μm. A constrained 3-D Gaussian filter (σ=0.8 and support=1) was used to partly suppress the noise in the volumes. The mineralized tissue was segmented from the hydrogel using a global thresholding procedure (Muller, R., and Ruegsegger, P. 1997, Stud Health Technol Inform 40, 61-79). In addition to the visual assessment of structural images, morphometric indices were determined from the microtomographic datasets using direct 3D morphometry (Hildebrand, T., 1999, J Bone Miner Res 14, 1167-1174). […] The following morphometric indices were determined for the newly formed bone: (i) volume of bone tissue; (ii) bone mineral density; (iii) trabecular thickness; (iv) anisotropy; (v) bone volume density and (vi) trabecular separation.
Histological analysis of bone formation—Harvested ectopic implants and regenerated limbs were processed for histology and stained as described (Sheyn, Kimelman-Bleich et al. 2007). In short, samples were fixed in 70% ethanol, passed through a graded series of ethanols, and embedded in paraffin. Sections 5-8 μm thick were cut from each paraffin block using a motorized microtome (Leica Microsystems, Wetzlar, Germany). Masson trichrom staining was performed in order to evaluate the histomorphology of the mineralized tissue.

tet-off BMP-2 MSCs = test: LDH release cytotoxicity assay of MSCs in fibrin gel in vitro; type: cell-based; settings: 10% PFTBA (w/v) in 100 μl fibrin gel, 10^6 MSCs, days 1 and 3 after cell seeding
Method: Effect of PFTBA on cell survival and oxygen levels—10^6 tet-off BMP-2 MSCs were suspended in 100 μl fibrin gel and cultured in 35-mm plates. In these conditions, the inner region of the hydrogel is hypoxic (data not shown). The experimental groups included hydrogels which included 0% or 10% PFTBA (w/v). Cell death was measured using the LDH release cytotoxicity assay on Days 1, 3, 7 and 14. […] Note that cytotoxicity was reduced over time, probably since nutrients and oxygen supply were more available to the remaining surviving cells. In a separate experiment, oxygen levels were measured in the center of MSC-loaded gels ([…] in 300 μl fibrin gel) using the Microx TX3 oxygen sensor (Presens, Precision Sensing GmbH, Regensburg, Germany).

C3H/HeN mice [3] = test: Cell-mediated posterior spinal fusion, micro CT; type: in vivo; settings: 10% PFTBA
[4] = tested on: tet-off BMP2 Luc/GFP cells; test: Cell survival in ectopic implants, bioluminescence imaging (BLI); type: in vivo, C3H/HeN mice; settings: fibrin gel, 5% and 10% PFTBA groups pooled
Excerpt: Imaging of cell viability in vivo—Tet-off BMP2 Luc/GFP Cell viability in the ectopic implants was quantified using the BLI system as was described (Bar, Zilberman et al. 2003). This CCCD tracking system (Roper Chemiluminescence Imaging System) consists of a CCCD camera (model LN/CCD-1300EB; Roper Scientific Inc.) equipped with an ST-133 controller and a 50-mm Nikon lens (Nikon Inc.). In this system, a pseudocolor image represents light intensity (blue signifies least intense and red most intense). The integrated light is the result of 2-minute exposure and acquisition. This CCCD camera converts photons to electrons with an efficiency of approximately 90% in the wavelength emission range of luciferin and converts approximately 1.8 electrons per count. Thus, every count represents 2 photons. The measurement is a total integrated signal of a constant exposure interval. […] The measurement can be verified by using a progressively larger region of interest (ROI) and by subtracting background readings. An increase in the ROI has no appreciable effect on the total intensity that is measured. Before light detection, the mice were anesthetized with a ketamine-xylazine mixture, which is injected intraperitoneally at 1 μl/g body weight. […]

[5] = fibrin gel with MSCs, 10% PFTBA (w/v), two weeks

For `FC(F)(F)C(F)(F)C(F)(F)C(F)(F)N(C(F)(F)C(F)(F)C(F)(F)C(F)(F)F)C(F)(F)C(F)(F)C(F)(F)C(F)(F)F` [PFTBA, Heptacosafluorotributylamine], the “volume of bone formed versus no PFTBA” value (C3H/HeN mice [1]; 5 or 10% PFTBA (w/v)) was “no significant difference”, the “BMD elevation of the formed bone, supplemented versus non-supplemented” value (C3H/HeN mice [1]; 5 or 10% PFTBA) was 1.1-1.2 and the “trabecular thickness elevation versus no-PFTBA group” value (C3H/HeN mice [1]; 5 or 10% PFTBA) was 1.3 fold. For the same compound, the osteocalcin activity (osteocalcin; day 5 post-implantation) was 2.76±0.48 relative light units (RLU; implant/tail), the “osteocalcin activity versus no PFTBA group” value (osteocalcin; day 7 and 14) was “no significant difference was noted” and the “bone volume of ectopic bone” value (C3H/HeN mice [2]; fibrin gel with MSCs, 5% PFTBA (w/v), two weeks) was 0.98±0.26 mm^3. The “bone volume of ectopic bone” value (C3H/HeN mice [2]; [5]) was 1.77±0.47 mm^3, the “increase in bone volume compared with the 0% PFTBA group” value (C3H/HeN mice [2]; [5]) was 2.5 fold and the “histology of implants (bone, hypertrophic cartilage, bone marrow)” value (C3H/HeN mice [2]; fibrin gel, 0%, 5%, 10% PFTBA, day 14, Masson trichrom) was “No histological difference was found”. The “volume of the ectopic bone versus no PFTBA group” value (C3H/HeN mice [2]; two weeks, 1-tailed T-test p=0.033) was “significant differences were found”, the “cell death (LDH release cytotoxicity) versus 0% PFTBA” value (tet-off BMP-2 MSCs) was “significantly fewer cells died” and the “average connectivity density elevation versus no PFTBA group” value (C3H/HeN mice [3]; week 3 post-implantation) was 1.29 fold. The “bone volume density elevation versus no PFTBA group” value (C3H/HeN mice [3]; week 3 post-implantation) was 1.25 fold, the “bone volume difference versus no PFTBA group” value (C3H/HeN mice [3]; week 3 post-implantation) was “this difference was not noted” and the “trabecular number increase versus no PFTBA group” value (C3H/HeN mice [3]; week 3 post-implantation) was 1.44 fold. The “bone volume of spinal fusion mass” value (C3H/HeN mice [3]; fibrin gel with MSCs, lumbar paravertebral muscle, 6 weeks post implantation) was 70.71±2.7 mm^3, the “luciferase activity (cell survival)” value ([4]; day 3 post implantation) was 21,519±2,047 integrated light units (ILU) and the “luciferase activity (cell survival) versus no-PFTBA group” value ([4]; day 7 post implantation) was “no significant difference between the groups was found”.
